Test results taken from ChEMBL document CHEMBL1136136, “Formylchromone derivatives as a novel class of protein tyrosine phosphatase 1B inhibitors” (Bioorg Med Chem Lett, 2003).

Assays:
[1] = molecular target: T1, Tyrosine-protein phosphatase non-receptor type 1 (Homo sapiens, UniProt P18031); assay: Inhibition of human Protein-tyrosine phosphatase 1B
T1 sequence (P18031 whole entry): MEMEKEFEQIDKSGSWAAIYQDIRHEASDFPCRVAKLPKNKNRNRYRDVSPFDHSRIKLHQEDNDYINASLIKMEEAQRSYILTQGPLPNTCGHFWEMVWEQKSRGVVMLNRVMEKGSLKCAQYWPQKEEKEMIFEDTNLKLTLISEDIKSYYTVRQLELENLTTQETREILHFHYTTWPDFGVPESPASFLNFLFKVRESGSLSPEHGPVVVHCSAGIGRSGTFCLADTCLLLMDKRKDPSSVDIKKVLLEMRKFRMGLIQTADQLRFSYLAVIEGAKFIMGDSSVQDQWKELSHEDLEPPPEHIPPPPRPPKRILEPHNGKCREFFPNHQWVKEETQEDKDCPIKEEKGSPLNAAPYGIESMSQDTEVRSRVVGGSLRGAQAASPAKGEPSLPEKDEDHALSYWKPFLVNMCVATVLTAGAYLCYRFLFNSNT

[2] = molecular target: Receptor-type tyrosine-protein phosphatase F (Homo sapiens, UniProt P10586); assay: Compound was tested for selectivity against LAR
[3] = molecular target: T2, Tyrosine-protein phosphatase non-receptor type 2 (Homo sapiens, UniProt P17706); assay: Compound was tested for selectivity against human T cell protein tyrosine phosphatase; assay type: cell-based
T2 sequence (P17706 whole entry): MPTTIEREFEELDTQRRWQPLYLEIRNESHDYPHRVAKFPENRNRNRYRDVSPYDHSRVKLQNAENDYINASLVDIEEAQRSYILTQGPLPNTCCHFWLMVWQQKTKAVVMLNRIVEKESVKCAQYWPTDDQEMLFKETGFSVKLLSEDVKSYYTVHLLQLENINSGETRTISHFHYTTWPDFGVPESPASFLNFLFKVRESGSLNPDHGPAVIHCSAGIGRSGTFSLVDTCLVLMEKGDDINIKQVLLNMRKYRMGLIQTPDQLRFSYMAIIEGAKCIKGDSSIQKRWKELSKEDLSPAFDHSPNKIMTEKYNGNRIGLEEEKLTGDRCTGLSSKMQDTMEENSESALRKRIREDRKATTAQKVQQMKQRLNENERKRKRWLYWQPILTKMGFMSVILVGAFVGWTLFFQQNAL

Chain of Receptor-type tyrosine-protein phosphatase F (P10586 whole entry): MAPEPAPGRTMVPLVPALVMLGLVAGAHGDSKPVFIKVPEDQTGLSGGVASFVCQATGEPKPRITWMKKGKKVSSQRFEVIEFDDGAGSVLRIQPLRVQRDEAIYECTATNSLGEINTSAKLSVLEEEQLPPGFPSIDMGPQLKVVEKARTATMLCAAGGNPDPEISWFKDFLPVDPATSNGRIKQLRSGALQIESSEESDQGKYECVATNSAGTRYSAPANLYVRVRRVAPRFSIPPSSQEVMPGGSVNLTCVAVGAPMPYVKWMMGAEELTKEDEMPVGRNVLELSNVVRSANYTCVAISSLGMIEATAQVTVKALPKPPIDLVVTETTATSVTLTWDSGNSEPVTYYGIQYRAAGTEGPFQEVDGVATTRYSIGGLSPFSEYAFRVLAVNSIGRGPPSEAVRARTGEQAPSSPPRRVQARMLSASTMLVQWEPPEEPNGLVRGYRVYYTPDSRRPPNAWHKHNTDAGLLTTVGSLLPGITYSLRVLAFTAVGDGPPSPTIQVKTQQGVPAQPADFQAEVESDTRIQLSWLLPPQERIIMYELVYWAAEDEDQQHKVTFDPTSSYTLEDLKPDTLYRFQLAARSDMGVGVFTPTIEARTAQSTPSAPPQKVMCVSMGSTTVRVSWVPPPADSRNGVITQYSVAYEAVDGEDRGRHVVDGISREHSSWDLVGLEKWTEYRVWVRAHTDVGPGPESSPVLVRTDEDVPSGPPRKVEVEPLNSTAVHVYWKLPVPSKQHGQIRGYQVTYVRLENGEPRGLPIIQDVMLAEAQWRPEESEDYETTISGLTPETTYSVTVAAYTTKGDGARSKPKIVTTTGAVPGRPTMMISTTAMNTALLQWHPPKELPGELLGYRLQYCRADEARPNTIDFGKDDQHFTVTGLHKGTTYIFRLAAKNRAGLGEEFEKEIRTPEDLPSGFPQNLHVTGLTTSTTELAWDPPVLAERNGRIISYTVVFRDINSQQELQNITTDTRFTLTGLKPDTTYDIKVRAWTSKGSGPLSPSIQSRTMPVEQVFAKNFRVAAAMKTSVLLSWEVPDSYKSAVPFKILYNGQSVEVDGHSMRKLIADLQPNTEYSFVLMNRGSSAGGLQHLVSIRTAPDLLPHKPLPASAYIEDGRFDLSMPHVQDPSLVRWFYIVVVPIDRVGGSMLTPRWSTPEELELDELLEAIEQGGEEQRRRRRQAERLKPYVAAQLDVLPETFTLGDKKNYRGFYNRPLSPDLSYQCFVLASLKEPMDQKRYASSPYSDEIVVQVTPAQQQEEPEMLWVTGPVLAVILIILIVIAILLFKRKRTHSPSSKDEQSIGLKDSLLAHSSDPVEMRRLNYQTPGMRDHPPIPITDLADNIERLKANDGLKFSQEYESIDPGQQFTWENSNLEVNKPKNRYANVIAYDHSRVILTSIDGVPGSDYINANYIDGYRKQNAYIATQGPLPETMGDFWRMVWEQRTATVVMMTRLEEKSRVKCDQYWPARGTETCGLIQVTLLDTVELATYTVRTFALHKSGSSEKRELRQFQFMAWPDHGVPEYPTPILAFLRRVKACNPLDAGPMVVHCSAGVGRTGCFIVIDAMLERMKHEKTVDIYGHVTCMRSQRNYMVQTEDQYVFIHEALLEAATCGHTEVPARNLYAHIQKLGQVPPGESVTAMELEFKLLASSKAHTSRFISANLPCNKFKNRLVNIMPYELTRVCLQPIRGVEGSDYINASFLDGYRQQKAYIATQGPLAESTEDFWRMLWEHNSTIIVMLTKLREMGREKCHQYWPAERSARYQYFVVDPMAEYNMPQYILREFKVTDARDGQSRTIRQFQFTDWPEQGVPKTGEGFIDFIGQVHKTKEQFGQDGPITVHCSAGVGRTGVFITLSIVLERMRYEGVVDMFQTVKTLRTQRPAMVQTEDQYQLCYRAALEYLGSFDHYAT

SMILES	IC50 [1] [µM]	IC50 [2] [µM]	IC50 [3] [µM]
CC(C)c1ccc2occ(C=O)c(=O)c2c1	22	–	–
O=Cc1coc2ccc([N+](=O)[O-])cc2c1=O	91	–	–
O=C(O)c1coc2ccccc2c1=O	> 1000	–	–
O=Cc1coc2c(Br)cc(Br)cc2c1=O	20	–	–
O=Cc1coc2ccc(Cl)cc2c1=O	28	–	–
O=Cc1coc2c(Cl)cc(Cl)cc2c1=O	25	–	–
O=Cc1coc2ccc(Br)cc2c1=O	20	–	–
O=Cc1coc2ccccc2c1=O	73	–	–
O=Cc1coc2c(ccc3ccccc32)c1=O	25	–	–
O=Cc1coc2ccc3ccccc3c2c1=O	14	> 1000	780
Nc1oc2ccccc2c(=O)c1C=O	> 1000	–	–
O=Cc1coc2ccc(-c3ccc(-c4ccccc4)cc3)cc2c1=O	4.3	> 1000	51
Cc1cc2occ(C=O)c(=O)c2cc1Cl	18	–	–
O=Cc1coc2ccc(F)cc2c1=O	55	–	–
O=Cc1coc2ccc(-c3ccccc3)cc2c1=O	14	> 1000	240
O=C(O)c1cc(=O)c2ccccc2o1 [CHROMOCARB]	> 1000	–	–
O=C(O)c1cc2ccccc2oc1=O [COUMARIN-3-CARBOXYLIC ACID]	> 1000	–	–
